This is an account of results in patent US20250353833A1, “DPP9 BINDING COMPOUNDS” (UNIVERSITEIT ANTWERPEN, priority 2022, published 2025).

Where two headings read alike, the source gives them in different places. Bounds are passed on as bounds.

Type in all cases: biochemical
One experiment deals with DPP2 (Homo sapiens (Human), UniProt Q9UHL4). Put plainly: DPP2 enzyme inhibition, IC50 measurement (Lys-Ala-pNA release). As to conditions: Table 1; mean ± SD (n = 3). The procedure: (§1) IC50 measurements. […] The Magellan software was used to process the data, which was then fitted using a non-linear fit model in GraFit 7. […] As a blank, the assay buffer was used instead of the enzyme. Screening measurements were carried out in duplo and IC50 values were determined in triplo with at least eight different inhibitor concentrations as described by Van Goethem et al.

In a further experiment the target is PREP (Homo sapiens (Human), UniProt P48147). In words: PREP enzyme inhibition, IC50 measurement (N-succinyl-Gly-Pro-AMC release). Particulars: Table 1; mean ± SD (n = 3). The procedure:
as §1

The target in another experiment is DPP9 (Homo sapiens (Human), UniProt Q86TI2). Put plainly: DPP9 enzyme inhibition, IC50 measurement (Ala-Pro-pNA release). Particulars: for SI DPP9/8 / SI DPP9/DPP8: selectivity index; for SI DPP9/8: DPP8 IC50 over DPP9 IC50; for SI DPP9/4: selectivity index DPP9/4. In a few lines:
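DPP9 inhibitory potency was determined as IC50 in triplicate, using at least eight inhibitor concentrations. Blanks contained assay buffer in place of enzyme. Data were processed with Magellan software and fitted to a non-linear model in GraFit 7.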

A further experiment has as its target FAP (Homo sapiens (Human), UniProt Q12884). Put plainly: FAP enzyme inhibition, IC50 measurement (Z-Gly-Pro-AMC release). Particulars: for IC50: Table 1, mean ± SD (n = 3).
The target in a further experiment is DPP8 (Homo sapiens (Human), UniProt Q6V1X1). In words: DPP8 enzyme inhibition, IC50 measurement (Ala-Pro-pNA release). The procedure:
as §1

The target in another experiment is DPP4 (Homo sapiens (Human), UniProt P27487). Put plainly: DPP4 enzyme inhibition, IC50 measurement (Ala-Pro-pNA release). As to conditions: Table 1; mean ± SD (n = 3). The procedure: DPP4 was purified from human seminal plasma as described previously.^[3]
as §1

The mark [1] stands for this setting: Table 1, mean ± SD (n = 3), read-out: IC50 DPP8.
Setting [2] is: Table 1, mean ± SD (n = 3), read-out: IC50 DPP9.
Setting [3] is: Table 4, standard method, read-out: IC50 DPP9.
Where [4] appears, read: Table 4, standard method, read-out: IC50 DPP8.
Where [5] appears, read: Table 3, mean ± SD (n = 3), read-out: DPP9 IC50 ± SD.
Setting [6] is: Table 3, mean ± SD (n = 3), read-out: DPP8 IC50 ± SD.

PREP, sequence (P48147 whole entry): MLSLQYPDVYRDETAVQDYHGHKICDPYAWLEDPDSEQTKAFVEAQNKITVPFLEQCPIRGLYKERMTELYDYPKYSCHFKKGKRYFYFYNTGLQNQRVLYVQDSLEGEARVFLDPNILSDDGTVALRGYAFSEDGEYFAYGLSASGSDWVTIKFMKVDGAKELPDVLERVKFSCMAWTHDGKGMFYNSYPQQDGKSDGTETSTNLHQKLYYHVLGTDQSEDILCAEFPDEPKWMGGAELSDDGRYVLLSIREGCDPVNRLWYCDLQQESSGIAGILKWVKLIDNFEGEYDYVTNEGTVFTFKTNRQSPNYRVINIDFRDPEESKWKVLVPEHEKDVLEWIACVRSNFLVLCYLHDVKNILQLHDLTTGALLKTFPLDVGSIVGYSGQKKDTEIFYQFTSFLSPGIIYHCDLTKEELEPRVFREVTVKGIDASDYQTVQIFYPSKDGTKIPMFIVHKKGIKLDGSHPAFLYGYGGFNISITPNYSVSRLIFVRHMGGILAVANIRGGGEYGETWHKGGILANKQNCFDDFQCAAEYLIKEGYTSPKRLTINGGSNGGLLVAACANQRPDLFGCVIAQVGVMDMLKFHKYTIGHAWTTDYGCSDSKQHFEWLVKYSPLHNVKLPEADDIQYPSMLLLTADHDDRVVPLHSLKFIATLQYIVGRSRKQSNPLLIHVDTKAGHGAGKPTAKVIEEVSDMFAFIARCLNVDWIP
FAP, sequence (Q12884 27-760): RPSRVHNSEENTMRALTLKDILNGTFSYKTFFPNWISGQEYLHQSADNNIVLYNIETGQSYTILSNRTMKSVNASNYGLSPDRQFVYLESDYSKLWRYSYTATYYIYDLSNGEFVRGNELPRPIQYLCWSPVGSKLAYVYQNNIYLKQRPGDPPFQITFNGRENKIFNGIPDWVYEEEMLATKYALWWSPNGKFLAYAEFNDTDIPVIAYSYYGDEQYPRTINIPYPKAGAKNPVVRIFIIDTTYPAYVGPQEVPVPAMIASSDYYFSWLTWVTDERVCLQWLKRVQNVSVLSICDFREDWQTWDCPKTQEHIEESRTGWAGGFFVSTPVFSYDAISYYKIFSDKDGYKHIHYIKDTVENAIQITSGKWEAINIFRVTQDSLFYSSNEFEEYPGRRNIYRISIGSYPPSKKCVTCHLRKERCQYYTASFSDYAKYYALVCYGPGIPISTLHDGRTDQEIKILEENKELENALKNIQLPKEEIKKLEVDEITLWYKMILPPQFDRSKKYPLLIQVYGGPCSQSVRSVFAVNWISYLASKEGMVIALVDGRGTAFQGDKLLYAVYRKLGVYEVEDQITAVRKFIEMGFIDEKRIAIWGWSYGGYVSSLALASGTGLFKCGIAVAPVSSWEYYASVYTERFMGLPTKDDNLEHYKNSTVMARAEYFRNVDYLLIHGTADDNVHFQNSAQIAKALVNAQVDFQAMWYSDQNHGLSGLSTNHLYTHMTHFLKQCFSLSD
DPP4, sequence (P27487 whole entry): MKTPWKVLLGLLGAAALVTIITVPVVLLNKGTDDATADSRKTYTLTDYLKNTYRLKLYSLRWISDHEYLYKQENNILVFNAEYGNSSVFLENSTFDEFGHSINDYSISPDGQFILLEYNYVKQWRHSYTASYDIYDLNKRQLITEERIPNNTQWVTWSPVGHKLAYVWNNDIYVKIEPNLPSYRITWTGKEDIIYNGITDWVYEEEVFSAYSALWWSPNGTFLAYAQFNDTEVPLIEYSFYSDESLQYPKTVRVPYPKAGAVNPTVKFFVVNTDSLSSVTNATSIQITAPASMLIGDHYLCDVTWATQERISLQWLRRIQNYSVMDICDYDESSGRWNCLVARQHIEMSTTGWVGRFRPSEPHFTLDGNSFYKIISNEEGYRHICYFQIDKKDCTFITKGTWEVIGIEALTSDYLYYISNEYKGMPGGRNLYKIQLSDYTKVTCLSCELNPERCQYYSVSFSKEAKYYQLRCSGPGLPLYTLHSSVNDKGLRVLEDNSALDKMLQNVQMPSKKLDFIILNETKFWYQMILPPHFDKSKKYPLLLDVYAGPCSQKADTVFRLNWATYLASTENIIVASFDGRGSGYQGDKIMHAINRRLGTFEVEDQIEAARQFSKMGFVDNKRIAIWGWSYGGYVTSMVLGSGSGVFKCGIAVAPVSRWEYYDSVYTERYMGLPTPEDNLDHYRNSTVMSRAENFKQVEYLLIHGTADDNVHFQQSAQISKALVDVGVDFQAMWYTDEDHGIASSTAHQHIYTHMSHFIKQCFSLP
DPP8, sequence (Q6V1X1 whole entry): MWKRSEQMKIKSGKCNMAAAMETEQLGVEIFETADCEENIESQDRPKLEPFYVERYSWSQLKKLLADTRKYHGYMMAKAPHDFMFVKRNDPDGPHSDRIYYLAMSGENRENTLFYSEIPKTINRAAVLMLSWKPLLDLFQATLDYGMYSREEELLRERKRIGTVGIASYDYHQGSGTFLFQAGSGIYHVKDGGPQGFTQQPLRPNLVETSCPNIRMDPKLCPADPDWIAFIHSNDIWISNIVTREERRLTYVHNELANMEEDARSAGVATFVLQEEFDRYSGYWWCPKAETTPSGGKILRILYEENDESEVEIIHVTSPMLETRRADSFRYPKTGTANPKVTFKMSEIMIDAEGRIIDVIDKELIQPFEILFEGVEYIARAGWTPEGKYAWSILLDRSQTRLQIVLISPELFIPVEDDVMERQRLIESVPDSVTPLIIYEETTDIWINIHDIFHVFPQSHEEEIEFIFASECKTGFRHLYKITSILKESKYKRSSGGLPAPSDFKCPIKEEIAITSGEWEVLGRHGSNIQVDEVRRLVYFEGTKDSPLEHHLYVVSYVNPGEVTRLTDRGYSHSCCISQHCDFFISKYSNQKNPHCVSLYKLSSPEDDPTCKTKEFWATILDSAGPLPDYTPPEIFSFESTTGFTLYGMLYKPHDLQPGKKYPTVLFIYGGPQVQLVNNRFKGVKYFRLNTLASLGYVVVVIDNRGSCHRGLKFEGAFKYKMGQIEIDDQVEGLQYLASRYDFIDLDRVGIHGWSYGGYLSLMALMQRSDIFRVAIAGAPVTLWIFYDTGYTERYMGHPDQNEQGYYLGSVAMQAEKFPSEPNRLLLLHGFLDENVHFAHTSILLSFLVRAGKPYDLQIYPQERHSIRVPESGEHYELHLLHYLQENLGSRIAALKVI
DPP9, sequence (Q86TI2 whole entry): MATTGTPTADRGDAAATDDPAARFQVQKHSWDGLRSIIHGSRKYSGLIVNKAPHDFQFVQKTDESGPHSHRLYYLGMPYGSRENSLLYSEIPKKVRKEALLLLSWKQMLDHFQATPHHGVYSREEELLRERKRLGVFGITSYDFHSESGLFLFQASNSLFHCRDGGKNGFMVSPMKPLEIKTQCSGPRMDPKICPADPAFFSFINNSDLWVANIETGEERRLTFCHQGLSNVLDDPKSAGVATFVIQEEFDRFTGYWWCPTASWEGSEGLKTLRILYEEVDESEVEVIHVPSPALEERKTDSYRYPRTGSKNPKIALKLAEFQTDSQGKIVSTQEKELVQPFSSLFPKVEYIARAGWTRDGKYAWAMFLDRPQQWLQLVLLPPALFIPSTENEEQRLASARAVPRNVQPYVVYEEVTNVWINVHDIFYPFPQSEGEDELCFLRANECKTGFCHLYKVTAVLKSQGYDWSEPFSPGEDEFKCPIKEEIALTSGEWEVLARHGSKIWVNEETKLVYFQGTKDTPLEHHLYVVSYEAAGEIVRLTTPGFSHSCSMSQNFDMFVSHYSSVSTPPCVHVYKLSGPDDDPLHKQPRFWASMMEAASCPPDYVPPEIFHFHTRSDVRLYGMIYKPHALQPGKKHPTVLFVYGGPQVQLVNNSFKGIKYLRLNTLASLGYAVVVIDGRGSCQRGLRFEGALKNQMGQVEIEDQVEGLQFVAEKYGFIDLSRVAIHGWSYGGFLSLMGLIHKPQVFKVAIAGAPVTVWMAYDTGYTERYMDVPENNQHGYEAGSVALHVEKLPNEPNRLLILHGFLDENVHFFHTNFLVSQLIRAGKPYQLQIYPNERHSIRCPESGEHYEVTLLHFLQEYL

For orientation: IC50 means the concentration needed to halve the response being measured. As for `N#C[C@@H]1CCCN1C(=O)CNC12CC3CC(C1)CC(OCc1ccccc1)(C3)C2` [Compound 5a, (S)-1-((-3-(benzyloxy)adamantan-1-yl)glycyl)pyrrolidine-2-carbonitrile], the IC50 was more than 5 µM on DPP2, 4.3 ± 0.3 µM at PREP, 4 ± 4 µM at FAP and 1.32 ± 0.2 µM at DPP8 (setting [1]). At DPP9 (Table 1), the “SI DPP9/8” value was 9.9. Further, the “inhibition of FAP” value on FAP (at the tested concentrations) was “micromolar inhibitor”.

`N#C[C@@H]1CCCN1C(=O)CNC12CC3CC(C1)CC(OCc1ccc(F)cc1F)(C3)C2` [Compound 5b, (S)-1-((-3-((2,4-difluorobenzyl)oxy)adamantan-1-yl)glycyl)pyrrolidine-2-carbonitrile]: the IC50 against DPP2 was more than 5 µM; against PREP, 2.2 ± 0.2 µM; on DPP4 it was 0.005 ± 0.001 µM; on DPP9 (setting [2]), 0.052 ± 0.008 µM; against FAP it was more than 10 µM; at DPP8 (setting [1]), 0.54 ± 0.1 µM. At DPP9 (Table 1), the “SI DPP9/4” value is 0.1. Further, the “SI DPP9/8” value on DPP9 (Table 1) worked out at 10.

For `CCCCOC12CC3CC(CC(NCC(=O)N4CCC[C@H]4C#N)(C3)C1)C2` [Compound 5c, (2S)-1-((-3-butoxyadamantan-1-yl)glycyl)pyrrolidine-2-carbonitrile], the IC50 is more than 5 µM at DPP2; more than 10 µM on PREP; 0.012 ± 0.002 µM on DPP4; 0.15 ± 0.01 µM at DPP9 (setting [2]); more than 10 µM on FAP; 1.25 ± 0.1 µM on DPP8 (setting [1]). The “SI DPP9/4” value on DPP9 (Table 1) stood at 0.07. At DPP9 (Table 1), the “SI DPP9/8” value is 8.5.

With `N#C[C@@H]1C[C@H](N=[N+]=[N-])CN1C(=O)CNC12CC3CC(CC(O)(C3)C1)C2` [Compound 5d, (2S,4S)-4-azido-1-((-3-hydroxyadamantan-1-yl)glycyl)pyrrolidine-2-carbonitrile], the IC50 was more than 5 µM against DPP2; more than 10 µM at PREP; 0.032 ± 0.003 µM against DPP4; 0.016 ± 0.001 µM at DPP9 (setting [2]); more than 10 µM against FAP; 0.15 ± 0.02 µM at DPP8 (setting [1]). For the same molecule, the “SI DPP9/4” value at DPP9 (Table 1) is listed as 2. Further, the “SI DPP9/8” value at DPP9 (Table 1) came out at 9.4.

Consider `N#C[C@@H]1C[C@H](N=[N+]=[N-])CN1C(=O)CNC12CC3CC(C1)CC(OCc1ccccc1)(C3)C2` [Compound 5e, (2S,4S)-4-azido-1-((3-(benzyloxy)adamantan-1-yl)glycyl)pyrrolidine-2-carbonitrile], for which the IC50 on DPP2 was more than 5 µM; against PREP, more than 10 µM; on DPP4, 0.017 ± 0.003 µM; on DPP9 (setting [2]), 0.01 ± 0.001 µM; against FAP it was more than 10 µM; at DPP8 (setting [1]), 0.06 ± 0.004 µM. In addition, on DPP9 (Table 1), the “SI DPP9/4” value was 1.7. Also, the “SI DPP9/8” value at DPP9 (Table 1) stood at 6.0.

In the case of `N#C[C@@H]1C[C@H](N=[N+]=[N-])CN1C(=O)CNC12CC3CC(C1)CC(OCc1ccc(F)cc1F)(C3)C2` [Compound 5f, (2S,4S)-4-azido-1-((3-((2,4-difluorobenzyl)oxy)adamantan-1-yl)glycyl)pyrrolidine-2-carbonitrile], the IC50 is more than 5 µM against DPP2; more than 10 µM at PREP; 0.024 ± 0.003 µM against DPP4; 0.006 ± 0.001 µM on DPP9 (setting [2]); more than 10 µM at FAP; 0.041 ± 0.007 µM at DPP8 (setting [1]). The “DPP9 inhibitory potency (in words)” value at DPP9 is reported as “most potent DPP9 inhibitor”. The “SI DPP9/4” value at DPP9 (Table 1) worked out at 3.3. In addition, the “SI DPP9/8” value at DPP9 (Table 1) turned out to be 6.8.

With `CCCCOC12CC3CC(CC(NCC(=O)N4C[C@@H](N=[N+]=[N-])C[C@H]4C#N)(C3)C1)C2` [Compound 5g, (2S,4S)-4-azido-1-((3-butoxyadamantan-1-yl)glycyl)pyrrolidine-2-carbonitrile], the IC50 on DPP2 is more than 5 µM; against PREP, more than 10 µM; on DPP9 (setting [2]), 0.035 ± 0.002 µM; against FAP, more than 10 µM; on DPP8 (setting [1]), 0.27 ± 0.06 µM. Further, the “SI DPP9/4” value at DPP9 (Table 1) turned out to be 3.8. Moreover, the “SI DPP9/8” value on DPP9 (Table 1) turned out to be 7.8.

`C=C1C[C@@H](C#N)N(C(=O)CNC23CC4CC(CC(O)(C4)C2)C3)C1` [Compound 5h, (2S)-1-((3-hydroxyadamantan-1-yl)glycyl)-4-methylenepyrrolidine-2-carbonitrile]: the IC50 against DPP2 was more than 5 µM; against PREP, more than 10 µM; against DPP4, 0.23 ± 0.07 µM; at DPP9 (setting [2]) it was 0.26 ± 0.03 µM; at FAP it was more than 10 µM; at DPP8 (setting [1]), 1 ± 0.2 µM. The “SI DPP9/4” value on DPP9 (Table 1) worked out at 0.9. Besides, the “SI DPP9/8” value on DPP9 (Table 1) is listed as 3.9.

As to `C=C1C[C@@H](C#N)N(C(=O)CNC23CC4CC(C2)CC(OCc2ccccc2)(C4)C3)C1` [Compound 5i, (S)-1-((3-(benzyloxy)adamantan-1-yl)glycyl)-4-methylenepyrrolidine-2-carbonitrile], the IC50 against DPP2 was 1.27 ± 0.2 µM; on PREP, 8.92 ± 1 µM; against DPP4 it was 0.28 ± 0.01 µM; at DPP9 (setting [2]), 0.12 ± 0.03 µM; against FAP, more than 10 µM; at DPP8 (setting [1]), 0.34 ± 0.006 µM. Besides, the “SI DPP9/4” value at DPP9 (Table 1) is 2.3. The “SI DPP9/8” value on DPP9 (Table 1) stood at 2.9.

In the case of `C=C1C[C@@H](C#N)N(C(=O)CNC23CC4CC(C2)CC(OCc2ccc(F)cc2F)(C4)C3)C1` [Compound 5j, (2S)-1-((3-((2,4-difluorobenzyl)oxy)adamantan-1-yl)glycyl)-4-methylenepyrrolidine-2-carbonitrile], the IC50 against DPP2 was 1.1 ± 0.08 µM; on PREP it was more than 10 µM; at DPP4 it was 0.41 ± 0.1 µM; on DPP9 (setting [2]) it was 0.13 ± 0.02 µM; against FAP, more than 10 µM; on DPP8 (setting [1]) it was 0.37 ± 0.07 µM. On DPP9 (Table 1), the “SI DPP9/4” value stood at 3.1. For the same molecule, at DPP9 (Table 1), the “SI DPP9/8” value is listed as 2.8.

For `C=C1C[C@@H](C#N)N(C(=O)CNC23CC4CC(C2)CC(OCCCC)(C4)C3)C1` [Compound 5k, (S)-1-((-3-butoxyadamantan-1-yl)glycyl)-4-methylenepyrrolidine-2-carbonitrile], the IC50 at DPP2 was 1.2 ± 0.4 µM; at PREP, 2.2 ± 0.2 µM; on DPP4, 0.32 ± 0.01 µM; on DPP9 (setting [2]) it was 0.21 ± 0.05 µM; against FAP, more than 10 µM; at DPP8 (setting [1]), 0.53 ± 0.01 µM. In addition, on DPP9 (Table 1), the “SI DPP9/4” value is given as 1.5. Moreover, at DPP9 (Table 1), the “SI DPP9/8” value is 2.5.

Regarding `CCCCOC12CC3CC(CC(NCC(=O)N4C[C@H]5C[C@H]5[C@H]4C#N)(C3)C1)C2` [Compound 5o, (1R,2S,5S)-3-((-3-butoxyadamantan-1-yl)glycyl)-3-azabicyclo[3.1.0]hexane-2-carbonitrile], the IC50 is more than 5 µM against DPP2; more than 10 µM against PREP; 0.99 ± 0.4 µM at DPP9 (setting [2]); more than 10 µM at FAP; more than 10 µM at DPP8 (setting [1]).

In the case of `Cl.O=C(NC12CC3CC(CC(NCC(=O)N4Cc5ccc(F)cc5C4)(C3)C1)C2)c1cccnc1` [Compound 98, N-((1s,3r,5R,7S)-3-((2-(5-fluoroisoindolin-2-yl)-2-oxoethyl)amino)adamantan-1-yl)nicotinamide hydrochloride], the “SI DPP9/DPP8” value on DPP9 (Table 4) came out at 3. In addition, the half-maximal inhibitory concentration (IC50) was determined as 0.088 ± 0.023 µM on DPP9 (setting [3]) and 0.27 ± 0.033 µM on DPP8 (setting [4]).

Turning to `Cc1ncsc1-c1ccc(CNC(=O)[C@@H]2C[C@@H](O)CN2C(=O)[C@@H](NC(=O)CCOCCOCCOCCC(=O)NC23CC4CC(CC(NCC(=O)N5Cc6ccc(F)cc6C5)(C4)C2)C3)C(C)(C)C)cc1` [Compound 124, (2S,4R)-1-((2S)-2-(tert-butyl)-16-((3-((2-(5-fluoroisoindolin-2-yl)-2-oxoethyl)amino)adamantan-1-yl)amino)-4,16-dioxo-7,10,13-trioxa-3-azahexadecanoyl)-4-hydroxy-N-(4-(4-methylthiazol-5-yl)benzyl)pyrrolidine-2-carboxamide], the “SI DPP9/DPP8” value on DPP9 (Table 4) came to 5. For the same molecule, the IC50 on DPP9 (setting [3]) worked out at 0.02 µM; on DPP8 (setting [4]), 0.094 ± 0.025 µM.

With “Lithium (((3-((2-(5-fluoroisoindolin-2-yl)-2-oxoethyl)amino)adamantan-1-yl)oxy)carbonyl)glycine [Compound 54]”, the values for the IC50 on DPP9 (setting [5]) and on DPP8 (setting [6]) were 0.00888 µM and 0.243 ± 0.0464 µM, respectively. The “SI DPP9/8” value on DPP9 (Table 3) is recorded as 27.4.

Take “Methyl (((3-((2-(5-fluoroisoindolin-2-yl)-2-oxoethyl)amino)adamantan-1-yl)oxy)carbonyl)-L-isoleucinate [Compound 57]”: the IC50 at DPP9 (setting [5]) is 0.107 µM; at DPP8 (setting [6]), 2.18 ± 0.345 µM. Besides, the “SI DPP9/8” value at DPP9 (Table 3) is recorded as 20.4.

Turning to “N-(3-((2-(isoindolin-2-yl)-2-oxoethyl)amino)adamantan-1-yl)adamantane-1-carboxamide [Compound 43]”, the values for the IC50 at DPP9 (setting [5]) and at DPP8 (setting [6]) were 0.186 ± 0.0536 µM and 5.7 ± 1.1 µM, respectively. Also, on DPP9 (Table 3), the “SI DPP9/8” value turned out to be 30.6.

“N-(-3-((2-(5-fluoroisoindolin-2-yl)-2-oxoethyl)amino)adamantan-1-yl)adamantane-1-carboxamide [Compound 45]”: the IC50 at DPP9 (setting [5]) stood at 0.038 ± 0.01 µM; on DPP8 (setting [6]), 1.18 ± 0.138 µM. Besides, on DPP9 (Table 3), the “SI DPP9/8” value came out at 31.

Regarding “lithium (((3-((2-(5-fluoroisoindolin-2-yl)-2-oxoethyl)amino)adamantan-1-yl)oxy)carbonyl)-L-tryptophanate [Compound 56]”, the IC50 on DPP9 (setting [5]) was 0.0946 µM; at DPP8 (setting [6]), 2.08 ± 0.184 µM. The “SI DPP9/8” value at DPP9 (Table 3) amounted to 22.0.
